Measurements as given in patent US20240000821A1, “CHEMICAL INHIBITORS AGAINST KINASES TO BLOCK TELOMERE ELONGATION IN CANCER” (THE JOHNS HOPKINS UNIVERSITY, priority 2016, published 2024).
pIC50: −log10 of the molar value.

Assays:
SL13 cells = assay: Inhibition of SVA mediated telomere elongation (telomere Southern blot); type: cell-based, mouse; details: for concentration dependence of the block of telomere elongation: several concentrations, FIG. 6, FIG. 7B
Method: Inhibition of SVA mediated telomere elongation. First, 2×10^5 SL13 cells were plated onto a 6-well dish in DMEM (Gibco) with 10% FBS (Sigma) and 1% Penicillin-Streptomycin-Glutamine (Gibco). SL13 cells are a mouse fibroblast line that was derived as described (Lee et al., 299(Pt 1) BIOCHEM. J. 123-28 (2015)). After 24 hours, the drug or vehicle was added at the indicated concentration for the duration of the experiment. 24 hours later, SVA virus was added at an MOI of 0.5. 2 population doublings were estimated during the initial 48 hours; therefore 400,000 transduction units of SVA were added to 800,000 cells. Media was changed at 24 hours post transduction, and cell pellets were collected at 2 and 6 days post transduction.
Telomere Southern Blot. Telomere length was measured by telomere restriction fragment Southern blot. Genomic DNA was extracted using Puregene Core Kit A (Qiagen). 1-3 μg of gDNA was digested with MseI (NEB) and loaded onto a 0.7% TAE Agarose gel. The gel was run at 37 V for 16 hours, then denatured for 30 minutes in 0.5 M NaOH and 1.5 M NaCl, then neutralized for 30 minutes in 1.5 M NaCl and 0.5 M Tris-HCl pH 7.4. The DNA was transferred from the gel to a nylon membrane (Amersham Hybond N+) by the weighted method overnight. Next, DNA was crosslinked to the membrane with a UV Stratalinker (Stratagene). The membrane was then pre-incubated for 2 hours at 65° C. with Church's Buffer. Telomere probe and 2-log ladder (Life Technologies) was then end-labeled with Klenow fragment polymerase (NEB) 33 μM of dATP, dTTP, dGTP and 50 μCi of α-32P dCTP (3000 Ci/mmol). Unincorporated nucleotides were removed by running on a G50 column (GE Healthcare). Labeled probe was counted, denatured at 100° C., and 10^6 counts/mL telomere probe and 2×10^4 counts/mL of 2-log ladder were added. The membrane was probed overnight at 65° C. The next day, the membrane was washed twice with 2×SSC 0.1% SDS, then twice with 0.5×SSC 0.1 SDS. The membrane was exposed on a phosphorimager (GE Healthcare) and imaged on a STORM scanner (GE Healthcare).

CK1 = details: Selleckchem, read-out: in vitro IC50; cited from earlier work
mouse fibroblasts = assay: toxicity to mouse fibroblasts; type: cell-based; details: data not shown
[1] = 0.5 μM, days 2 and 6 post SVA transduction, FIG. 7A
[2] = 10 μM, days 2 and 6 post SVA transduction

SMILES: Nc1ncnc2c1c(I)cn2[C@@H]1O[C@H](CO)[C@@H](O)[C@H]1O [5-Iodotubercidin]
- effect on telomere elongation by SVA (SL13 cells; [1]): did not affect telomere elongation

SMILES: Cc1sc2c(c1C)C(c1ccc(Cl)cc1)=N[C@@H](CC(=O)OC(C)(C)C)c1nnc(C)n1-2 [JQ1]
- effect on telomere elongation by SVA (SL13 cells; 11 nM, days 2 and 6 post SVA transduction, FIG. 6): virtually no effect on telomere elongation
- effect on telomere elongation by SVA (SL13 cells; 33 nM, days 2 and 6 post SVA transduction, FIG. 6): intermediate telomere length
- effect on telomere elongation by SVA (SL13 cells; 0.1 μM, telomere length day 6 vs day 2 post SVA transduction, FIG. 5A): blocked telomere elongation
- effect on telomere elongation by SVA (SL13 cells; 100 nM, days 2 and 6 post SVA transduction, FIG. 6): blocked nearly all SVA mediated elongation
- concentration dependence of the block of telomere elongation (SL13 cells): titrates with its concentration

SMILES: Cc1cc(/N=N/c2ccc(S(=O)(=O)Nc3ccccn3)cc2)c(N)cc1O [MS436]
- effect on telomere elongation by SVA (SL13 cells; 5 μM, days 2 and 6 post SVA transduction): blocked SVA induced telomere elongation

SMILES: Nc1[nH]nc2nnc(-c3c(-c4ccccc4)nn4ccccc34)cc12 [FR-180204]
- effect on telomere elongation by SVA (SL13 cells; [2]): minimal effect on telomere elongation

SMILES: Cn1nccc1Nc1nccc(-c2ccn([C@H](CO)c3ccc(Cl)c(F)c3)c(=O)c2)n1 [GDC-0994]
- effect on telomere elongation by SVA (SL13 cells; [2]): blocked telomere elongation

SMILES: COc1cc(OC)c(C=C2C(O)=Nc3ccccc32)c(OC)c1 [IC261]
- pIC50 (CK1): 4.80
- cell death (mouse fibroblasts; 2.5 μM): significant cell death
- effect on telomere elongation by SVA (SL13 cells; [1]): did not affect telomere elongation

SMILES: Cc1sc2c(c1C)C(c1ccc(Cl)cc1)=N[C@@H](CC(=O)Nc1ccc(O)cc1)c1nnc(C)n1-2 [OTX015]
- effect on telomere elongation by SVA (SL13 cells; 0.4 μM, days 2 and 6 post SVA transduction, FIG. 5B): blocked SVA induced telomere elongation

SMILES: O=c1cc(-c2cccc3c2Sc2ccccc2S3)oc(N2CCOCC2)c1 [KU-55933]
- effect on telomere elongation by SVA (SL13 cells; [2]): blockage

SMILES: NC(=O)c1ccc(-c2nc(-c3ccc4c(c3)OCCO4)c(-c3ccccn3)[nH]2)cc1 [Compound D4476]
- effect on telomere elongation by SVA (SL13 cells; 0.37 μM, compared to DMSO control, FIG. 7B): able to block some telomere elongation
- effect on telomere elongation by SVA (SL13 cells; [2]): blocked telomere elongation
- effect on telomere elongation by SVA (SL13 cells; lower concentrations (3.33 μM, 1.11 μM or 0.37 μM), FIG. 7B): less blockage of telomere elongation

SMILES: COc1cc2c(cc1-c1c(C)noc1C)ncc1[nH]c(=O)n([C@H](C)c3ccccn3)c12 [I-BET151]
- effect on telomere elongation by SVA (SL13 cells; 1 μM, days 2 and 6 post SVA transduction, FIG. 5C): blocked SVA induced telomere elongation
